One assay deals with IL-1β release. In words: IL-1β release assay (THP-1 cells, PMA, LPS, nigericin). It is filed as cell-based. The conditions noted are these: Homo sapiens, LPS 250 ng/mL, nigericin 20 μM, cleaved IL-1β in media. As for the experimental part:
Approximately 1.5 million THP-1 cells were plated in each well of a 6-well TC plate and incubated with 40 nM PMA in RPMI (10% FBS, 1% Penstrep) for 24 hours. The media was then removed and cells were rested in RPMI (10% FBS, 1% Penstrep) for 24 hours after which time the media was removed and cells were pre-treated for 2 hours with various concentrations of compounds of interest (typically serial 3-fold dilution in RPMI+5% FBS, concentrations ranging from 1 μM to 0.5 nM) in RPMI (5% FBS). The media was again removed and cells were incubated with 250 ng/mL LPS and compounds of interest (concentrations as above) in RMPI (5% FBS) for 2 hours. The media was removed for a last time and cells were incubated with 20 μM nigericin and compounds of interest (concentrations as above) in Opti-MEM for 30 minutes. Cell media was then collected and the amount of cleaved IL-1β was determined using a JESS instrument (Protein Simple) and standard protocols. Cleaved Il-1β antibody was obtained from Cell Signaling (catalogue #83186S) and was used at 1:20 dilution in antibody diluent 2. Protein Simple 1× anti-Rabbit HRP secondary antibody was used along with Protein Simple luminol and peroxide for chemiluminescent detection. Primary antibody incubation time was increased from 30 minutes to 60 minutes.

Assay [1] addresses T1, full-length recombinant human NEK7 (Homo sapiens, UniProt Q8TDX7).
T1 construct: full-length recombinant human NEK7; GST (N); purchased SignalChem NO9-10G; host or cells: Sf9 insect cells (baculovirus)
In words: NEK7 enzymatic assay. It is filed as biochemical. To be noted: recombinant human NEK7, casein substrate, radiolabelled ATP. In outline:
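Full-length GST-tagged human NEK7 from Sf9 cells (assay concentration 70 nM) was used with casein (assay concentration 20 μM) in Hepes pH 7.5 buffer, 1% DMSO, and compound (3-fold dilutions, 10 μM to 0.5 nM) was preincubated 20 min at room temperature. Radiolabelled ATP was added for 2 h, phosphorylation was read on P81 paper, and IC50 was fitted from % activity remaining versus vehicle.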

In general, IC50 refers to the concentration needed to halve the response being measured.

T1 sequence (Q8TDX7 whole entry): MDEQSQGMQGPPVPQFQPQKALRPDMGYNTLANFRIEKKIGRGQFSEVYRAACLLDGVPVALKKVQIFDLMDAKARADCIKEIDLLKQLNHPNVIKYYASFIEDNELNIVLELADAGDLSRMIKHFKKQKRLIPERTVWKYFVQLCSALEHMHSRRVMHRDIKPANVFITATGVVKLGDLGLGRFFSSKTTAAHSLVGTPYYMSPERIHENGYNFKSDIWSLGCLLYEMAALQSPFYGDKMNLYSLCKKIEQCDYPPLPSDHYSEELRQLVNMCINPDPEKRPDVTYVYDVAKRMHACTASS

Turning to `CN1CCN(Cc2ccc(NC(=O)Nc3ccc(-c4nn(C5CC5)c5ncnc(N)c45)cc3F)cc2C(F)(F)F)CC1` [Example I-28, 1-(4-(4-amino-1-cyclopropyl-1H-pyrazolo[3,4-d]pyrimidin-3-yl)-2-fluorophenyl)-3-(4-((4-methylpiperazin-1-yl)methyl)-3-(trifluoromethyl)phenyl)urea], the values for the concentration for half-maximal inhibition (IC50) (with IL-1β release; in assay [1]) were under 50 nM and under 100 nM, respectively.
For `CN1CCN(Cc2ccc(NC(=O)Nc3ccc(-c4cn(C)c5ncnc(N)c45)cc3F)cc2C(F)(F)F)CC1` [Example I-18, 1-(4-(4-amino-7-methyl-7H-pyrrolo[2,3-d]pyrimidin-5-yl)-2-fluorophenyl)-3-(4-((4-methylpiperazin-1-yl)methyl)-3-(trifluoromethyl)phenyl)urea], in that order: under 50 nM and under 100 nM.
The matching figures for `CN1CCN(Cc2ccc(NC(=O)Nc3ccc(-c4cn(C5CCN(C)C5)c5ncnc(N)c45)cc3F)cc2C(F)(F)F)CC1` (stereo not shown) [Example I-20, 1-(4-(4-amino-7-(1-methylpyrrolidin-3-yl)-7H-pyrrolo[2,3-d]pyrimidin-5-yl)-2-fluorophenyl)-3-(4-((4-methylpiperazin-1-yl)methyl)-3-(trifluoromethyl)phenyl)urea]: under 50 nM and under 100 nM.
On to `Nc1ncnc2c1c(-c1ccc(NC(=O)Nc3ccc(CN4CCC(N)CC4)c(C(F)(F)F)c3)c(F)c1)cn2C1CC1` [Example I-75, 1-(4-(4-amino-7-cyclopropyl-7H-pyrrolo[2,3-d]pyrimidin-5-yl)-2-fluorophenyl)-3-(4-((4-aminopiperidin-1-yl)methyl)-3-(trifluoromethyl)phenyl)urea], for which the half-maximal inhibitory concentration (IC50) was over 1000 nM in the assay on IL-1β release and 100 to 500 nM in assay [1].
`CC(C)n1nc(-c2ccc(NC(=O)Nc3ccc(CN4CCN(C)CC4)c(C(F)(F)F)c3)cc2)c2c(N)ncnc21` [Example I-24, 1-(4-(4-amino-1-isopropyl-1H-pyrazolo[3,4-d]pyrimidin-3-yl)phenyl)-3-(4-((4-methylpiperazin-1-yl)methyl)-3-(trifluoromethyl)phenyl)urea]: the IC50 was under 50 nM with IL-1β release and under 100 nM in assay [1].
`Nc1ncnc2c1c(-c1ccc(NC(=O)Nc3ccc(OC4CCN(C5COC5)CC4)c(C(F)(F)F)c3)c(F)c1)cn2C1CC1` [Example I-83, 1-(4-(4-amino-7-cyclopropyl-7H-pyrrolo[2,3-d]pyrimidin-5-yl)-2-fluorophenyl)-3-(4-((1-(oxetan-3-yl)piperidin-4-yl)oxy)-3-(trifluoromethyl)phenyl)urea]: the concentration for half-maximal inhibition (IC50) in the assay with IL-1β release was in the range of 50 to 250 nM; in assay [1], 100 to 500 nM.
In the case of `CN1CCN(Cc2ccc(NC(=O)Nc3ccc(-c4cn(C5CCN(S(=O)(=O)C6CC6)CC5)c5ncnc(N)c45)cc3F)cc2C(F)(F)F)CC1` [Example I-102, 1-(4-(4-amino-7-(1-(cyclopropylsulfonyl)piperidin-4-yl)-7H-pyrrolo[2,3-d]pyrimidin-5-yl)-2-fluorophenyl)-3-(4-((4-methylpiperazin-1-yl)methyl)-3-(trifluoromethyl)phenyl)urea], the concentration for half-maximal inhibition (IC50) in the assay with IL-1β release is 50 to 250 nM; in assay [1], under 100 nM.
On to `CN1CCC(n2cc(-c3ccc(NC(=O)Nc4ccc(CN5CCN(C)CC5)c(C(F)(F)F)c4)c(F)c3)c3c(N)ncnc32)CC1` [Example I-21, 1-(4-(4-amino-7-(1-methylpiperidin-4-yl)-7H-pyrrolo[2,3-d]pyrimidin-5-yl)-2-fluorophenyl)-3-(4-((4-methylpiperazin-1-yl)methyl)-3-(trifluoromethyl)phenyl)urea], for which the results for the IC50 (in the assay on IL-1β release; in assay [1]) were over 1000 nM and under 100 nM, respectively.
Consider `CC(C)N1CCN(Cc2ccc(NC(=O)Nc3ccc(-c4cn(C5CC5)c5ncnc(N)c45)cc3F)cc2C(F)(F)F)CC1` [Example I-63, 1-(4-(4-amino-7-cyclopropyl-7H-pyrrolo[2,3-d]pyrimidin-5-yl)-2-fluorophenyl)-3-(4-((4-isopropylpiperazin-1-yl)methyl)-3-(trifluoromethyl)phenyl)urea], for which the IC50 in the assay with IL-1β release is under 50 nM; in assay [1] it was under 100 nM.
For `CN1CCN(Cc2ccc(NC(=O)Nc3ccc(-c4nn(C5CC5)c5ccnc(N)c45)cc3F)cc2C(F)(F)F)CC1` [Example I-31, 1-(4-(4-amino-1-cyclopropyl-1H-pyrazolo[4,3-c]pyridin-3-yl)-2-fluorophenyl)-3-(4-((4-methylpiperazin-1-yl)methyl)-3-(trifluoromethyl)phenyl)urea], in that order: under 50 nM and under 100 nM.
As for `CN1CCN(Cc2ccc(NC(=O)Nc3ccc(-c4cn(C5CC5)c5ncnc(N)c45)cc3F)cc2OC(F)(F)F)CC1` [Example I-78, 1-(4-(4-amino-7-cyclopropyl-7H-pyrrolo[2,3-d]pyrimidin-5-yl)-2-fluorophenyl)-3-(4-((4-methylpiperazin-1-yl)methyl)-3-(trifluoromethoxy)phenyl)urea], the IC50 in the assay on IL-1β release lay within 50 to 250 nM; in assay [1], 100 to 500 nM.
For `Nc1ncnc2c1c(-c1ccc(NC(=O)Nc3ccc(CN4CCN(CCO)CC4)c(C(F)(F)F)c3)c(F)c1)cn2C1CC1` [Example I-42, 1-(4-(4-amino-7-cyclopropyl-7H-pyrrolo[2,3-d]pyrimidin-5-yl)-2-fluorophenyl)-3-(4-((4-(2-hydroxyethyl)piperazin-1-yl)methyl)-3-(trifluoromethyl)phenyl)urea], in that order: under 50 nM and under 100 nM.
On to `CN1CCN(Cc2ccc(NC(=O)Nc3ccc(-c4cn(CC(C)(C)O)c5ncnc(N)c45)cc3F)cc2C(F)(F)F)CC1` [Example I-15, 1-(4-(4-amino-7-(2-hydroxy-2-methylpropyl)-7H-pyrrolo[2,3-d]pyrimidin-5-yl)-2-fluorophenyl)-3-(4-((4-methylpiperazin-1-yl)methyl)-3-(trifluoromethyl)phenyl)urea], for which the IC50 is under 50 nM in the assay with IL-1β release and under 100 nM in assay [1].
For the compound `Nc1ncnc2c1c(-c1ccc(NC(=O)Nc3ccc(CN4CCN(CCF)CC4)c(C(F)(F)F)c3)c(F)c1)cn2C1CC1` [Example I-84, 1-(4-(4-amino-7-cyclopropyl-7H-pyrrolo[2,3-d]pyrimidin-5-yl)-2-fluorophenyl)-3-(4-((4-(2-fluoroethyl)piperazin-1-yl)methyl)-3-(trifluoromethyl)phenyl)urea], the IC50 in the assay on IL-1β release is under 50 nM; in assay [1] it was under 100 nM.
In the case of `CN1CCN(C(=O)c2ccc(NC(=O)Nc3ccc(-c4cn(C5CC5)c5ncnc(N)c45)cc3F)cc2C(F)(F)F)CC1` [Example I-10], the 50% inhibitory concentration (IC50) with IL-1β release lay in the range of 50 to 250 nM; in assay [1], 100 to 500 nM.
The matching figures for `CS(=O)(=O)N1CCN(Cc2ccc(NC(=O)Nc3ccc(-c4cn(C5CC5)c5ncnc(N)c45)cc3F)cc2C(F)(F)F)CC1` [Example I-98, 1-(4-(4-amino-7-cyclopropyl-7H-pyrrolo[2,3-d]pyrimidin-5-yl)-2-fluorophenyl)-3-(4-((4-(methylsulfonyl)piperazin-1-yl)methyl)-3-(trifluoromethyl)phenyl)urea]: over 1000 nM and 500 to 2000 nM.
Regarding `CN1CCN(Cc2ccc(NC(=O)Nc3ccc(-c4nn(CC(C)(C)O)c5ncnc(N)c45)cc3F)cc2C(F)(F)F)CC1` [Example I-29, 1-(4-(4-amino-1-(2-hydroxy-2-methylpropyl)-1H-pyrazolo[3,4-d]pyrimidin-3-yl)-2-fluorophenyl)-3-(4-((4-methylpiperazin-1-yl)methyl)-3-(trifluoromethyl)phenyl)urea], the concentration for half-maximal inhibition (IC50) with IL-1β release is under 50 nM; in assay [1], under 100 nM.

For the origin of these results see US20240317758A1 (Halia Therapeutics, Inc., priority 2021, published 2024).
